The data set in a line: Uptake of doxorubicin into J6456 mouse tumors. Conditions: in vivo, J6456 mice, IV, fluorometric (Table 14), read-out: Percent of Injected Dose (DXR)/q Tumor (SD). As for the experimental part: Sized MLVs having one of the three lipid compositions shown in Table 14 below were prepared as above. Doxorubicin was included in the hydration buffer, at a concentration of about 5 mg/ml, and free drug was removed from the sized liposomes by gel filtration.
Mice innoculated with J6456 lymphoma cells were injected IV with the MLVs (1 umole phospholipid/animal) or with an equivalent amount of free doxorubicin. Tissue distribution of the drug, 24 hours post administration, was determined fluorometrically, with the results shown in Tables 13 below.

Among the data in patent US4920016A, “Liposomes with enhanced circulation time” (Linear Technology, Inc., priority 1987, dated 1990) are tissue uptake values, retold here.

For `COc1cccc2c1C(=O)c1c(O)c3c(c(O)c1C2=O)C[C@@](O)(C(=O)CO)C[C@@H]3O[C@H]1C[C@H](N)[C@H](O)[C@H](C)O1` [FREE DXR, doxorubicin], the tissue uptake at 24 h stood at 0.4 %ID/g.
